Measurements as given in patent US20250042912A1, “NOVEL NON-FLUORINATED QUINOLONE COMPOUND AND USE THEREOF” (priority 2021, published 2025).
Structures can show the parent of a compound that is named as a salt.

Experiments:
[1] = system: Propionibacterium acnes ATCC 11827; assay: Minimum inhibitory concentration (MIC) assay, Propionibacterium acnes ATCC 11827; type: cell-based; settings: Cutibacterium acnes, ATCC11827; anaerobic culture 35+/-2°C, 48 hours; read with naked eyes
Description: (§1) On the day of the experiment, the compound in the flask was dissolved in 100% DMSO until the concentration of mother liquor was 0.4 mg/mL. If the mother liquor was not used on the same day, it was stored at −80° C. for future use. The compound mother liquor and standard antibiotics were subjected to 2-fold gradient dilution with corresponding solvents on a 96-microwell plate (V-bottom) to obtain 100× working solutions (Well 1 to Well 7) in sequence. Among them, the concentrations of the compound were 400 μg/mL, 200 μg/mL, 100 μg/mL, 50 μg/mL, 25 μg/mL, 12.5 μg/mL, 6.25 μg/mL, and 3.125 μg/mL. 100% DMSO was used as growth control (Well 8). As such, the compound motherplate was obtained. Two days before the experiment, anaerobic bacteria (Propionibacterium acnes) stored in a cryogenic tube at −80° C. were scribed on an MBA (Brucella Agar+5% (v/v) defibrillated sheep blood+[…] Hemin+1 μg/mLVitamin K1) plate. The anaerobic bacteria were placed in a 35+/−2° C. anaerobic incubator for 42-48 hours of cultivation. On the day of the experiment, the plate was taken out, clones were picked from the plate and suspended in physiological saline. Then, the turbidity of the bacterial suspension (containing 1.0-2.0×10^8 CFU/mL) was adjusted to OD600=0.2 by a turbidity meter. Then, the adjusted bacterial suspension was diluted to an appropriate concentration with the assay culture medium: about 5×10^5 CFU/mL for aerobic bacteria, and about 1×10^6 CFU/mL for anaerobic bacteria. As such, the inoculating solution was obtained. […] Therefore, the final assay concentrations of the compound were 4 μg/mL, 2 μg/mL, 1 μg/mL, 0.5 μg/mL, 0.25 μg/mL, 0.125 μg/mL, 0.06 μg/mL and 0.03 μg/mL. The total volume of each well on the assay plate was 200 μL: containing 1% DMSO, about 5×10^5 CFU/mL of aerobic bacteria and about 1×10^6 CFU/mL of anaerobic bacteria. All assay plates for aerobic bacteria were aerobically cultured at 35+/−2° C. for 16 to 20 hours, and all assay plates for anaerobic bacteria were anaerobically cultured in an anaerobic incubator at 35+/−2° C. for 48 hours. Note: for anaerobic bacteria, both the preparation of bacterial solution in step 2 and the inoculation of bacterial solution in step 3 were operated in an anaerobic workstation.

[2] = system: Propionibacterium acnes ATCC 6919; assay: Minimum inhibitory concentration (MIC) assay, Propionibacterium acnes ATCC 6919; type: cell-based; settings: Cutibacterium acnes, ATCC6919; anaerobic culture 35+/-2°C, 48 hours; read with naked eyes
Description: as §1

[3] = system: Staphylococcus epidermidis ATCC 35983; assay: Minimum inhibitory concentration (MIC) assay, Staphylococcus epidermidis ATCC 35983; type: cell-based; settings: ATCC35983, aerobic culture 35+/-2°C, 16 to 20 hours, read with naked eyes
Description: (§2) On the day of the experiment, the compound in the flask was dissolved in 100% DMSO until the concentration of mother liquor was 0.4 mg/mL. If the mother liquor was not used on the same day, it was stored at −80° C. for future use.
(§3) The compound mother liquor and standard antibiotics were subjected to 2-fold gradient dilution with corresponding solvents on a 96-microwell plate (V-bottom) to obtain 100× working solutions (Well 1 to Well 7) in sequence. Among them, the concentrations of the compound were 400 μg/mL, 200 μg/mL, 100 μg/mL, 50 μg/mL, 25 μg/mL, 12.5 μg/mL, 6.25 μg/mL, and 3.125 μg/mL. 100% DMSO was used as growth control (Well 8). As such, the compound motherplate was obtained.
(§4) One day before the experiment, aerobic bacteria (Staphylococcus epidermidis) stored in a cryogenic tube at −80° C. were scribed on an MHA (Cation-adjusted Mueller-Hinton agar) plate. The aerobic bacteria were placed in a 35+/−2° C. incubator for 18-24 hours of aerobic cultivation.
(§5) On the day of the experiment, the plate was taken out, clones were picked from the plate and suspended in physiological saline. Then, the turbidity of the bacterial suspension (containing 1.0-2.0×10^8 CFU/mL) was adjusted to OD600=0.2 by a turbidity meter. Then, the adjusted bacterial suspension was diluted to an appropriate concentration with the assay culture medium: about 5×10^5 CFU/mL for aerobic bacteria, and about 1×10^6 CFU/mL for anaerobic bacteria. As such, the inoculating solution was obtained.
(§6) 2 μl of 2-fold series dilution of 100× high-concentration working solution was transferred from a compound mother plate (prepared in step 1) to a round-bottom 96-well plate, and then 198 μL of bacterial inoculating solution (prepared in step 2) was added to each well to obtain an MIC assay plate. Therefore, the final assay concentrations of the compound were 4 μg/mL, 2 μg/mL, 1 μg/mL, 0.5 μg/mL, 0.25 μg/mL, 0.125 μg/mL, 0.06 μg/mL and 0.03 μg/mL. The total volume of each well on the assay plate was 200 μL: containing 1% DMSO, about 5×10^5 CFU/mL of aerobic bacteria and about 1×10^6 CFU/mL of anaerobic bacteria.
(§7) All assay plates for aerobic bacteria were aerobically cultured at 35+/−2° C. for 16 to 20 hours, and all assay plates for anaerobic bacteria were anaerobically cultured in an anaerobic incubator at 35+/−2° C. for 48 hours.

[4] = system: Staphylococcus epidermidis ATCC 35984; assay: Minimum inhibitory concentration (MIC) assay, Staphylococcus epidermidis ATCC 35984; type: cell-based; settings: ATCC35984, aerobic culture 35+/-2°C, 16 to 20 hours, read with naked eyes
Description: as §2, §3, §4, §5, §6, §7

[5] = system: Staphylococcus epidermidis ATCC 12228; assay: Minimum inhibitory concentration (MIC) assay, Staphylococcus epidermidis ATCC 12228; type: cell-based; settings: ATCC12228, aerobic culture 35+/-2°C, 16 to 20 hours, read with naked eyes
Description: as §2, §3, §4, §5, §6, §7

[6] = Pharmacokinetic evaluation in mice after intravenous and oral administration; type: in vivo; settings: mouse, plasma, male CD-1 mice
Description: CD-1 mice (male, Beijing Vital River Laboratory Animal Technology Co., Ltd.)
The pharmacokinetic characteristics of rodents after intravenous and oral administration of the compounds were tested using a standard protocol. In the experiment, the candidate compounds were prepared into clear solutions and administered to mice by single intravenous injection and oral administration. The intravenous and oral vehicles were mixed vehicles of 10% DMSO+90% (20% SBE-β-CD). This project included four male CD-1 mice, two of which were administered intravenously at a dosage of 1 mg/kg, and plasma samples were collected at 0.083 hours, 0.25 hours, 0.5 hours, 1 hour, 2 hours, 4 hours, 8 hours, and 24 hours after administration; the other two mice were orally administered by gavage at a dosage of 2 mg/kg, and plasma samples were collected at 0.25 hours, 0.5 hours, 1 hour, 2 hours, 4 hours, 8 hours, and 24 hours after administration. Blood samples were placed on ice after collection, and plasma was separated by centrifugation within 1 hour (centrifugation conditions: 6000 g, 3 minutes, 2-8° C.). Plasma samples were stored in a refrigerator at −80° C. before analysis. Plasma concentrations were quantitatively analyzed using LC-MS/MS analysis method, and pharmacokinetic parameters were calculated such as peak concentration (Cmax), clearance rate (CL), half-life (T1/2), […] (Vdss), area under concentration-time curve (AUC0-last), and bioavailability (F), etc.

MIC [1]	MIC [2]	MIC [3]	MIC [4]	MIC [5]	bioavailability ([6]; IV 1 mg/kg, oral gavage 2 mg/kg, read-out: Bioavailability F)	Cmax ([6]; IV 1 mg/kg, oral gavage 2 mg/kg, route of Cmax not given, read-out: Peak concentration Cmax)	clearance ([6]; IV 1 mg/kg, read-out: Clearance rate CL)	half-life ([6]; IV 1 mg/kg, read-out: Half-life T1/2 (IV) (converted))	Vd ([6]; IV 1 mg/kg, read-out: Tissue distribution Vdss)	AUC(0-t) ([6]; oral gavage 2 mg/kg, read-out: Area under concentration-time curve AUC0-last PO)	Structure (SMILES)
0.125 µg/mL	0.125 µg/mL	0.06 µg/mL	≤ 0.03 µg/mL	0.06 µg/mL							Cc1cc2c(cn1)-c1ccc3c(=O)c(C(=O)O)cn(C4CC4)c3c1COC2 [Sodium salt of Compound 10]
0.25 µg/mL	0.125 µg/mL	0.06 µg/mL	0.06 µg/mL	0.06 µg/mL							CCCNc1cc2c(cn1)-c1ccc3c(=O)c(C(=O)O)cn(C4CC4)c3c1COC2 [Trifluoroacetate of Compound 13]
1 µg/mL	2 µg/mL	2 µg/mL	1 µg/mL	2 µg/mL							N=C(N)NOCCOCCNc1cc2c(cn1)-c1ccc3c(=O)c(C(=O)O)cn(C4CC4)c3c1COC2 [Hydrochloride of Compound 29]
0.25 µg/mL	0.12 µg/mL	0.12 µg/mL	≤ 0.06 µg/mL	0.12 µg/mL							CN(CC(F)F)c1cc2c(cn1)-c1ccc3c(=O)c(C(=O)O)cn(C4CC4)c3c1COC2 [Trifluoroacetate of Compound 23]
0.125 µg/mL	0.06 µg/mL	0.06 µg/mL	0.06 µg/mL	0.06 µg/mL							O=C(O)c1cn(C2CC2)c2c3c(ccc2c1=O)-c1cnc(NCCO)cc1COC3 [Trifluoroacetate of Compound 12]
0.25 µg/mL	0.25 µg/mL	0.25 µg/mL	0.5 µg/mL	0.5 µg/mL							CNc1ccc2c(n1)COCc1c-2ccc2c(=O)c(C(=O)O)cn(C3CC3)c12 [Hydrochloride of Compound 1]
0.25 µg/mL	0.25 µg/mL	0.06 µg/mL	0.125 µg/mL	0.03 µg/mL							Nc1ncc2c(n1)COCc1c-2ccc2c(=O)c(C(=O)O)cn(C3CC3)c12 [Trifluoroacetate of Compound 9]
					132%	683 nM	132 mL/min/kg	20.5 min	3.04 L/kg	0.924 µM·h	Nc1cc2c(cn1)-c1ccc3c(=O)c(C(=O)O)cn(C4CC4)c3c1COC2 [Hydrochloride of Compound 7]
